Bridge positions count the residues as written; N and C are the ends. Square brackets hold non-standard residues; d marks the D form. Peptide text beside a SMILES is read from it. * marks the point of attachment. ξ: configuration not given here. Phe(4-COOH) = N[C@@H](Cc1ccc(C(=O)O)cc1)C(=O)O; Bip = N[C@@H](Cc1ccc(-c2ccccc2)cc1)C(=O)O; Phe(3-OMe) = COc1cccc(C[C@H](N)C(=O)O)c1; Phe(4-CN) = N#Cc1ccc(C[C@H](N)C(=O)O)cc1; Phe(3-Me) = Cc1cccc(C[C@H](N)C(=O)O)c1; 3Pal = N[C@@H](Cc1cccnc1)C(=O)O; 4Pal = N[C@@H](Cc1ccncc1)C(=O)O; Thr(3ξ) = CC(O)[C@H](N)C(=O)O; Carboxymethyl = O=C(O)C*; NMeA = CN[C@@H](C)C(=O)O; Orn = NCCC[C@H](N)C(=O)O; Dab = NCC[C@H](N)C(=O)O; Dap = NC[C@H](N)C(=O)O
The compounds below were run against T1, PE-labeled human PD-L1-Ig binding to Jurkat cell line over-expressing human PD-1 (Jurkat-PD-1) (Homo sapiens, UniProt Q15116) (assay: Jurkat-PD-1 Cell Binding High-Content Screening Assay (CBA): Method 1). Conditions: Jurkat-hPD-1 cells, PE-labeled PD-L1-Ig 20 nM final; read-out: Jurkat HPDL1 PD1 IC50 (uM) (Method 1).
T1 construct: expressed in transfected cells; host or cells: Jurkat
T1 sequence (Q15116 25-288): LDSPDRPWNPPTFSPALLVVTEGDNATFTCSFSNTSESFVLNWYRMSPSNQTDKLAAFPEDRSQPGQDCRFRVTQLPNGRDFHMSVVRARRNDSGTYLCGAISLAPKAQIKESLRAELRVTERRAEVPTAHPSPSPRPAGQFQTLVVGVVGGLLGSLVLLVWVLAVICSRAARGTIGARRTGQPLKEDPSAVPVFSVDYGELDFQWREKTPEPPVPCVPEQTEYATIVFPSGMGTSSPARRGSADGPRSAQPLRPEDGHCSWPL

Structure (SMILES) | IC50
COc1cccc(C[C@@H]2NC(=O)[C@H](Cc3ccccc3)NC(=O)CSC[C@@H](C(=O)NCC(N)=O)NC(=O)[C@H](CO)NC(=O)[C@H](C(C)C)NC(=O)[C@H](CC(C)C)NC(=O)[C@H](CC(N)=O)NC(=O)[C@@H](CC(C)C)NC(=O)[C@H](C)N(C)C(=O)[C@H](C(C)C)NC(=O)[C@H](Cc3ccc(-c4ccccc4)cc3)NC(=O)[C@H](CC(C)C)NC(=O)[C@H](Cc3c[nH]c4ccccc34)NC(=O)[C@H](CC(=O)O)NC2=O)c1 [Compound 1521] ({CH2CO}-F[Phe(3-OMe)]DWL[Bip]V[NMeA][dL]NLVSCG-NH2; thioether N-14) | 0.07 µM
COc1cccc(C[C@@H]2NC(=O)[C@H](CN)NC(=O)CSC[C@@H](C(=O)NCC(N)=O)NC(=O)[C@H](CO)NC(=O)[C@H](C(C)C)NC(=O)[C@H](CC(C)C)NC(=O)[C@H](CC(N)=O)NC(=O)[C@@H](CC(C)C)NC(=O)[C@H](C)N(C)C(=O)[C@H](C(C)C)NC(=O)[C@H](Cc3ccc(-c4ccccc4)cc3)NC(=O)[C@H](CC(C)C)NC(=O)[C@H](Cc3c[nH]c4ccccc34)NC(=O)[C@H](CC(=O)O)NC2=O)c1 [Compound 1522] ({CH2CO}-[Dap][Phe(3-OMe)]DWL[Bip]V[NMeA][dL]NLVSCG-NH2; thioether N-14) | 0.05 µM
CC(C)C[C@@H]1NC(=O)[C@H](Cc2c[nH]c3ccccc23)NC(=O)[C@H](CC(=O)O)NC(=O)[C@H](Cc2ccc(O)cc2)NC(=O)[C@H](Cc2ccccc2)NC(=O)CSC[C@@H](C(=O)N[C@@H](C)C(N)=O)NC(=O)[C@H](CO)NC(=O)[C@H](CCCCN)NC(=O)[C@H](CC(C)C)NC(=O)[C@H](CC(N)=O)NC(=O)[C@@H](C)NC(=O)[C@H](C)N(C)C(=O)[C@H](C(C)C)NC(=O)[C@H](Cc2ccc(-c3ccccc3)cc2)NC1=O [Compound 1529] ({CH2CO}-FYDWL[Bip]V[NMeA][dA]NLKSCA-NH2; thioether N-14) | 0.05 µM
CC(C)C[C@@H]1NC(=O)[C@H](Cc2c[nH]c3ccccc23)NC(=O)[C@H](CC(=O)O)NC(=O)[C@H](Cc2ccc(O)cc2)NC(=O)[C@H](Cc2ccccc2)NC(=O)CSC[C@@H](C(=O)N[C@@H](C)C(N)=O)NC(=O)[C@H](CO)NC(=O)[C@H](CCN)NC(=O)[C@H](CC(C)C)NC(=O)[C@H](CC(N)=O)NC(=O)[C@@H](C)NC(=O)[C@H](C)N(C)C(=O)[C@H](C(C)C)NC(=O)[C@H](Cc2ccc(-c3ccccc3)cc2)NC1=O [Compound 1531] ({CH2CO}-FYDWL[Bip]V[NMeA][dA]NL[Dab]SCA-NH2; thioether N-14) | 0.11 µM
CC(C)C[C@@H]1NC(=O)[C@H](Cc2c[nH]c3ccccc23)NC(=O)[C@H](CC(=O)O)NC(=O)[C@H](Cc2ccc(O)cc2)NC(=O)[C@H](Cc2ccccc2)NC(=O)CSC[C@@H](C(=O)N[C@@H](C)C(N)=O)NC(=O)[C@H](CO)NC(=O)[C@H](CN)NC(=O)[C@H](CC(C)C)NC(=O)[C@H](CC(N)=O)NC(=O)[C@@H](C)NC(=O)[C@H](C)N(C)C(=O)[C@H](C(C)C)NC(=O)[C@H](Cc2ccc(-c3ccccc3)cc2)NC1=O [Compound 1532] ({CH2CO}-FYDWL[Bip]V[NMeA][dA]NL[Dap]SCA-NH2; thioether N-14) | 0.17 µM
CC(C)C[C@@H]1NC(=O)[C@H](Cc2c[nH]c3ccccc23)NC(=O)[C@H](CC(=O)O)NC(=O)[C@H](Cc2ccc(O)cc2)NC(=O)[C@H](Cc2ccccc2)NC(=O)CSC[C@@H](C(=O)N[C@@H](C)C(N)=O)NC(=O)[C@H]([C@@H](C)O)NC(=O)[C@H](CCCN)NC(=O)[C@H](CC(C)C)NC(=O)[C@H](CC(N)=O)NC(=O)[C@@H](C)NC(=O)[C@H](C)N(C)C(=O)[C@H](C(C)C)NC(=O)[C@H](Cc2ccc(-c3ccccc3)cc2)NC1=O [Compound 1533] ({CH2CO}-FYDWL[Bip]V[NMeA][dA]NL[Orn]TCA-NH2; thioether N-14) | 0.15 µM
CC(C)C[C@@H]1NC(=O)[C@H](Cc2c[nH]c3ccccc23)NC(=O)[C@H](CC(=O)O)NC(=O)[C@H](Cc2ccc(O)cc2)NC(=O)[C@H](Cc2ccccc2)NC(=O)CSC[C@@H](C(=O)N[C@@H](C)C(N)=O)NC(=O)[C@H](C(C)O)NC(=O)[C@H](CCN)NC(=O)[C@H](CC(C)C)NC(=O)[C@H](CC(N)=O)NC(=O)[C@@H](C)NC(=O)[C@H](C)N(C)C(=O)[C@H](C(C)C)NC(=O)[C@H](Cc2ccc(-c3ccccc3)cc2)NC1=O (stereo partly shown) [Compound 1534] ({CH2CO}-FYDWL[Bip]V[NMeA][dA]NL[Dab][Thr(3ξ)]CA-NH2; thioether N-14) | 0.49 µM

Continued, values first:

IC50 | Structure (SMILES)
0.05 µM | Cc1cccc(C[C@@H]2NC(=O)[C@H](Cc3ccccc3)NC(=O)CSC[C@@H](C(=O)NCC(N)=O)NC(=O)[C@H](CO)NC(=O)[C@H](C(C)C)NC(=O)[C@H](CC(C)C)NC(=O)[C@H](CC(N)=O)NC(=O)[C@@H](CC(C)C)NC(=O)[C@H](C)N(C)C(=O)[C@H](C(C)C)NC(=O)[C@H](Cc3ccc(-c4ccccc4)cc3)NC(=O)[C@H](CC(C)C)NC(=O)[C@H](Cc3c[nH]c4ccccc34)NC(=O)[C@H](CC(=O)O)NC2=O)c1 [Compound 1518] ({CH2CO}-F[Phe(3-Me)]DWL[Bip]V[NMeA][dL]NLVSCG-NH2; thioether N-14)
0.02 µM | Cc1cccc(C[C@@H]2NC(=O)[C@H](Cc3ccncc3)NC(=O)CSC[C@@H](C(=O)NCC(N)=O)NC(=O)[C@H](CO)NC(=O)[C@H](C(C)C)NC(=O)[C@H](CC(C)C)NC(=O)[C@H](CC(N)=O)NC(=O)[C@@H](CC(C)C)NC(=O)[C@H](C)N(C)C(=O)[C@H](C(C)C)NC(=O)[C@H](Cc3ccc(-c4ccccc4)cc3)NC(=O)[C@H](CC(C)C)NC(=O)[C@H](Cc3c[nH]c4ccccc34)NC(=O)[C@H](CC(=O)O)NC2=O)c1 [Compound 1519] ({CH2CO}-[4Pal][Phe(3-Me)]DWL[Bip]V[NMeA][dL]NLVSCG-NH2; thioether N-14)
0.01 µM | Cc1cccc(C[C@@H]2NC(=O)[C@H](Cc3cccnc3)NC(=O)CSC[C@@H](C(=O)NCC(N)=O)NC(=O)[C@H](CO)NC(=O)[C@H](C(C)C)NC(=O)[C@H](CC(C)C)NC(=O)[C@H](CC(N)=O)NC(=O)[C@@H](CC(C)C)NC(=O)[C@H](C)N(C)C(=O)[C@H](C(C)C)NC(=O)[C@H](Cc3ccc(-c4ccccc4)cc3)NC(=O)[C@H](CC(C)C)NC(=O)[C@H](Cc3c[nH]c4ccccc34)NC(=O)[C@H](CC(=O)O)NC2=O)c1 [Compound 1520] ({CH2CO}-[3Pal][Phe(3-Me)]DWL[Bip]V[NMeA][dL]NLVSCG-NH2; thioether N-14)
0.01 µM | COc1cccc(C[C@@H]2NC(=O)[C@H](Cc3cccnc3)NC(=O)CSC[C@@H](C(=O)NCC(N)=O)NC(=O)[C@H](CO)NC(=O)[C@H](C(C)C)NC(=O)[C@H](CC(C)C)NC(=O)[C@H](CC(N)=O)NC(=O)[C@@H](CC(C)C)NC(=O)[C@H](C)N(C)C(=O)[C@H](C(C)C)NC(=O)[C@H](Cc3ccc(-c4ccccc4)cc3)NC(=O)[C@H](CC(C)C)NC(=O)[C@H](Cc3c[nH]c4ccccc34)NC(=O)[C@H](CC(=O)O)NC2=O)c1 [Compound 1524] ({CH2CO}-[3Pal][Phe(3-OMe)]DWL[Bip]V[NMeA][dL]NLVSCG-NH2; thioether N-14)
0.03 µM | CC(C)C[C@@H]1NC(=O)[C@H](Cc2c[nH]c3ccccc23)NC(=O)[C@H](CC(=O)O)NC(=O)[C@H](Cc2ccc(C#N)cc2)NC(=O)[C@H](Cc2ccccc2)NC(=O)CSC[C@@H](C(=O)NCC(N)=O)NC(=O)[C@H](CO)NC(=O)[C@H](C(C)C)NC(=O)[C@H](CC(C)C)NC(=O)[C@H](CC(N)=O)NC(=O)[C@@H](CC(C)C)NC(=O)[C@H](C)N(C)C(=O)[C@H](C(C)C)NC(=O)[C@H](Cc2ccc(-c3ccccc3)cc2)NC1=O [Compound 1525] ({CH2CO}-F[Phe(4-CN)]DWL[Bip]V[NMeA][dL]NLVSCG-NH2; thioether N-14)
0.01 µM | CC(C)C[C@@H]1NC(=O)[C@H](Cc2c[nH]c3ccccc23)NC(=O)[C@H](CC(=O)O)NC(=O)[C@H](Cc2ccc(OCC(=O)O)cc2)NC(=O)[C@H](Cc2ccccc2)NC(=O)CSC[C@@H](C(=O)NCC(N)=O)NC(=O)[C@H](CO)NC(=O)[C@H](C(C)C)NC(=O)[C@H](CC(C)C)NC(=O)[C@H](CC(N)=O)NC(=O)[C@@H](CC(C)C)NC(=O)[C@H](C)N(C)C(=O)[C@H](C(C)C)NC(=O)[C@H](Cc2ccc(-c3ccccc3)cc2)NC1=O [Compound 1526] ({CH2CO}-FY(Carboxymethyl)DWL[Bip]V[NMeA][dL]NLVSCG-NH2; thioether N-14)
0.01 µM | CC(C)C[C@@H]1NC(=O)[C@H](Cc2c[nH]c3ccccc23)NC(=O)[C@H](CC(=O)O)NC(=O)[C@H](Cc2ccc(C#N)cc2)NC(=O)[C@H](CC(N)=O)NC(=O)CSC[C@@H](C(=O)NCC(N)=O)NC(=O)[C@H](CO)NC(=O)[C@H](C(C)C)NC(=O)[C@H](CC(C)C)NC(=O)[C@H](CC(N)=O)NC(=O)[C@@H](CC(C)C)NC(=O)[C@H](C)N(C)C(=O)[C@H](C(C)C)NC(=O)[C@H](Cc2ccc(-c3ccccc3)cc2)NC1=O [Compound 1527] ({CH2CO}-N[Phe(4-CN)]DWL[Bip]V[NMeA][dL]NLVSCG-NH2; thioether N-14)
0.01 µM | CC(C)C[C@@H]1NC(=O)[C@H](Cc2c[nH]c3ccccc23)NC(=O)[C@H](CC(=O)O)NC(=O)[C@H](Cc2ccc(C(=O)O)cc2)NC(=O)[C@H](Cc2ccccc2)NC(=O)CSC[C@@H](C(=O)NCC(N)=O)NC(=O)[C@H](CO)NC(=O)[C@H](C(C)C)NC(=O)[C@H](CC(C)C)NC(=O)[C@H](CC(N)=O)NC(=O)[C@@H](CC(C)C)NC(=O)[C@H](C)N(C)C(=O)[C@H](C(C)C)NC(=O)[C@H](Cc2ccc(-c3ccccc3)cc2)NC1=O [Compound 1528] ({CH2CO}-F[Phe(4-COOH)]DWL[Bip]V[NMeA][dL]NLVSCG-NH2; thioether N-14)
0.03 µM | CC(C)C[C@@H]1NC(=O)[C@H](Cc2c[nH]c3ccccc23)NC(=O)[C@H](CC(=O)O)NC(=O)[C@H](Cc2ccc(O)cc2)NC(=O)[C@H](Cc2ccccc2)NC(=O)CSC[C@@H](C(=O)N[C@@H](C)C(N)=O)NC(=O)[C@H](CO)NC(=O)[C@H](CCCN)NC(=O)[C@H](CC(C)C)NC(=O)[C@H](CC(N)=O)NC(=O)[C@@H](C)NC(=O)[C@H](C)N(C)C(=O)[C@H](C(C)C)NC(=O)[C@H](Cc2ccc(-c3ccccc3)cc2)NC1=O [Compound 1530] ({CH2CO}-FYDWL[Bip]V[NMeA][dA]NL[Orn]SCA-NH2; thioether N-14)
